# Assay results reported in patent US12635718B2, “Flavanone derivatives and their use as sweetness enhancers” (Firmenich SA, priority 2019, dated 2026).
# Columns and labels:
# [1] = tested on: panelists; experiment: Sweetener replacement test: panel choice between beverages (rebaudioside M, sucralose); format: in vivo, human; settings: for Panelists (of 45) who selected the beverage with test compound: statistical equivalence
# From the text: In one test, 45 panelists were asked to select between a beverage sweetened with 450 ppm rebaudioside M and a beverage with 300 ppm rebaudioside M and 12 ppm test compound A01. Of the 45 panelists, 23 selected the former, and 22 selected the latter, which is a statistical equivalence. […] In another test, 45 panelists were asked to select between a beverage sweetened with 160 ppm sucralose and a beverage with 120 ppm sucralose and 12 ppm test compound A01. Of the 45 panelists, 22 selected the former, and 23 selected the latter, which is a statistical equivalence.
# [2] = tested on: taste panelists; experiment: Taste panel rating of sweetness and licorice taste of 5% sucrose solutions; format: in vivo, human; settings: scale 0 to 10, no enhancer 5.0
# Experimental: A test compound, (2R,3R)-3-acetoxy-5,7,4′-trihydroxyflavanone (A01), was tested in comparison to naringenin for its sweetness enhancement of a 5% (w/w) aqueous solution of sucrose. Taste panelists were asked to taste the following 5% sucrose solutions in Henniez water and rate their sweetness on a scale from 0 to 10, and to rate the presence of any licorice taste in the sample on a scale from 0 to 10.
# The test compound A01 was tested in comparison to other sweetness enhancers in a similar test to that set forth in Example 1. The comparative compounds are taxifolin 3-O-acetate (A02), and ampelopsin 3-O-acetate (A03).
# [3] = +20 ppm in 5% sucrose solution (Table 2)
Structure (SMILES),"Reduction in concentration of sucralose permitted ([1]; 12 ppm test compound, 160 ppm to 120 ppm sucralose) [%]","Reduction in concentration of rebaudioside M permitted ([1]; 12 ppm test compound, 450 ppm to 300 ppm rebaudioside M) [%]",Panelists (of 45) who selected the beverage with test compound ([1]; 120 ppm sucralose + 12 ppm A01 versus 160 ppm sucralose),Panelists (of 45) who selected the beverage with test compound ([1]; 300 ppm rebaudioside M + 12 ppm A01 versus 450 ppm rebaudioside M),Sweetness (0-10) ([2]; +5 ppm in 5% (w/w) sucrose solution in Henniez water),Sweetness (0-10) ([2]; +10 ppm in 5% (w/w) sucrose solution in Henniez water),"Sweetness (0-10) [2, 3]",Sweetness (0-10) ([2]; +50 ppm in 5% (w/w) sucrose solution in Henniez water)
"CC(=O)O[C@H]1C(=O)c2c(O)cc(O)cc2O[C@@H]1c1ccc(O)cc1 [A01, (2R,3R)-3-acetoxy-5,7,4′-trihydroxyflavanone]",25,33,23,22,7.0,8.0,8.8,
"CC(=O)OC1C(=O)c2c(O)cc(O)cc2OC1c1cc(O)c(O)c(O)c1 (stereo not drawn) [A03, ampelopsin 3-O-acetate, reference compound]",,,,,,,5.1,
"O=C1C[C@@H](c2ccc(O)cc2)Oc2cc(O)cc(O)c21 [naringenin, reference compound]",,,,,,,,5.8
